Earlier results on 1 compound are cited in patent publication US11963940B2, “Parenteral esmolol formulation” (AOP ORPHAN PHARMACEUTICALS AG, priority 2012, dated 2024).

The conditions of the data set: after the starting dose, e.g. initial infusion.

For `COC(=O)CCc1ccc(OCC(O)CNC(C)C)cc1.Cl` (stereo not shown) [esmolol, 4-[2-Hydroxy-3-[(1-methylethyl)amino]propoxy] benzenepropanoic acid methyl ester hydrochloride], the “time to steady state plasma concentration” value is no more than 5 min.
